Legend:
MexG-HAWA = biological target: T1, MexG-HAWA (Pseudomonas aeruginosa, UniProt Q9HWH6, H95A/W98A); assay: intrinsic tryptophan fluorescence quenching; assay type: binding
T1 sequence (Q9HWH6 1-148 H95A/W98A): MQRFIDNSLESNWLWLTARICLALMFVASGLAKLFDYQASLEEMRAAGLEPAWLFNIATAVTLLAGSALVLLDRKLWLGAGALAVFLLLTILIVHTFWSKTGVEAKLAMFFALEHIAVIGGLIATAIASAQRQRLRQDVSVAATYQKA

MexG = MexG (Pseudomonas aeruginosa, UniProt Q9HWH6); assay: intrinsic tryptophan fluorescence quenching; assay type: binding

Compound Cn1c2cccc(=O)c-2nc2ccccc21 [pyocyanin] has a Kd (MexG-HAWA) of roughly 7 µM and a Kd (MexG) of roughly 0.6 µM.

— article PMC5807214 (ACS infectious diseases, 2017)
